Literature values, collected in patent US9687482B2, “Stable pharmaceutical composition comprising solifenacin, and method for preparing the same” (CJ HEALTHCARE CORPORATION, priority 2014, dated 2017).

Biological target: muscarinic M3 receptors (Homo sapiens, UniProt P20309)
Settings: reported

muscarinic M3 receptors, sequence (P20309 whole entry): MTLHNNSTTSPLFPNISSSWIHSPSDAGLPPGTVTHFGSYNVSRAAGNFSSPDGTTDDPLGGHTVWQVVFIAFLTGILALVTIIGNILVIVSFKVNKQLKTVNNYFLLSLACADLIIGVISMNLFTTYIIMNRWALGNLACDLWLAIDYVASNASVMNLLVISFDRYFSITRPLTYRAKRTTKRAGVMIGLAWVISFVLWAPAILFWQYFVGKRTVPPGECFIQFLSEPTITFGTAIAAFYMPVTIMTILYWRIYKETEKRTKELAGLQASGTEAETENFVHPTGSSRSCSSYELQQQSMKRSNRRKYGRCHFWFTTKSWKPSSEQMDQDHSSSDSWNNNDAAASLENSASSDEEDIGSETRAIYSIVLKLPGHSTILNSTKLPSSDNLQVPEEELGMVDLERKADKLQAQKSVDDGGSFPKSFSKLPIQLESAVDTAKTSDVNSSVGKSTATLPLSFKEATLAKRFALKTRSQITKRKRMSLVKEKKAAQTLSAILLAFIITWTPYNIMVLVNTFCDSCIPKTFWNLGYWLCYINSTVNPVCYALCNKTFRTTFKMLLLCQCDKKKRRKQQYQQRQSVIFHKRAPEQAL

antagonistic action against muscarinic M3 receptors: excellent selective antagonistic action
SMILES: O=C(O[C@H]1CN2CCC1CC2)N1CCc2ccccc2[C@@H]1c1ccccc1 [Solifenacin, (1R,3′R)-3′-quinuclidinyl-1-phenyl-1,2,3,4-tetrahydro-2-isoquinoline carboxylate]
